Reference: article PMC6754302 (Cell chemical biology, 2019)
“Also recorded” adds a separate entry of the source. Each block holds one compound with its values, some of them ahead of it.

Legend:
[1] = molecular target: T1, intracellular C6 activity (Homo sapiens, UniProt P55212); assay: Intracellular lamin A cleavage ELISA; assay type: cell-based
T1 sequence (P55212 24-293): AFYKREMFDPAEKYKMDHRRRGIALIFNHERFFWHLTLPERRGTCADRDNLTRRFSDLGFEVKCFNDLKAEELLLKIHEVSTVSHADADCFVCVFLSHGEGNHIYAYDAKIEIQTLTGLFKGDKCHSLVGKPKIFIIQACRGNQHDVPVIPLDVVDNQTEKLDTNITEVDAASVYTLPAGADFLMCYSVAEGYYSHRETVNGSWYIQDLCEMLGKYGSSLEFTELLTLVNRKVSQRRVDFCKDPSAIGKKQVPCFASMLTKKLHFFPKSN

[2] = molecular target: T2, Recombinant C6 enzyme (Homo sapiens, UniProt P55212); assay: Washout experiment; assay type: biochemical; settings: read-out: inhibition of C6 activity after washout
T2 sequence (P55212 24-179 limits assumed): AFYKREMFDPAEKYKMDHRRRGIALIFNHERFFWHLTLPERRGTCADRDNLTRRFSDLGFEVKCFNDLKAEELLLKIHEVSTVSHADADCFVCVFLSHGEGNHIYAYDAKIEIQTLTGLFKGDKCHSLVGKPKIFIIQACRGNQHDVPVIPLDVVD
T2 sequence (P55212 194-293 limits assumed): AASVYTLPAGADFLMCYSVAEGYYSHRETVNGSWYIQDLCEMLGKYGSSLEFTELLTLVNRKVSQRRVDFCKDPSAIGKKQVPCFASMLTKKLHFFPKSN

[3] = molecular target: T3, caspase-6 (C6) (Homo sapiens, UniProt P55212); assay: TR-FRET-based C6 activity assay with HTT1–1212 as substrate; assay type: biochemical; settings: for shift of dose-response curve with pre-incubation time: 0 min vs 60 min pre-incubation of C6 with compound
T3 sequence (P55212 24-179 limits assumed): T2 sequence (P55212 24-179 limits assumed)
T3 sequence (P55212 194-293 limits assumed): T2 sequence (P55212 194-293 limits assumed)

[4] = test system: pro-C6 (C6 zymogen); assay: LE22 labelling of C6 in lysates of transfected COS-7 cells; assay type: cell-based, human; settings: 10 μM in the culture medium, co-transfection with mHTT1–586
[5] = molecular target: T4, pro-C6 (C6 zymogen) (Homo sapiens, UniProt P55212); assay: as above; assay type: cell-based
T4 sequence (P55212 1-293): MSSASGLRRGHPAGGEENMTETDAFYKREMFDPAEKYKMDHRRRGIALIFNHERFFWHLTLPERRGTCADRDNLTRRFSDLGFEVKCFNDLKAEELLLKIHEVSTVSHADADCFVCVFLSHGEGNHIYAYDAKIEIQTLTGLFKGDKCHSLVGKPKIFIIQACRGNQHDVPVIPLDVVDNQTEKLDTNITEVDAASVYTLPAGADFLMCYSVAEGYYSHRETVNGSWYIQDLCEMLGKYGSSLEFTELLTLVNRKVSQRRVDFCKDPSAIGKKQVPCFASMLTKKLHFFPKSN

[6] = molecular target: T3, caspase-6 (C6); assay: C6 activity assay using the VEID-AFC peptide as a substrate; assay type: biochemical
[7] = molecular target: T5, C6 (Homo sapiens, UniProt P55212); assay type: cell-based; settings: for intracellular C6-mediated cleavage of HTT1–1212 (HTT1–586 fragment): COS-7 cells co-transfected with C6 and HTT1–1212, compound in the media
T5 sequence (P55212 24-293): T1 sequence (P55212 24-293)

[8] = molecular target: T2, Recombinant C6 enzyme; settings: 10 μM inhibitor
[9] = molecular target: T6, C6-HTT interaction (Homo sapiens, UniProt P55212); assay: Co-immunoprecipitation of HTT with DDK-tagged C6 from co-transfected COS-7 cells; assay type: cell-based
T6 sequence (P55212 24-293): T1 sequence (P55212 24-293)

- inhibition of lamin A proteolysis [1]: strong inhibition
- inhibition at 10 µM [2]: 100%
- inhibition of HTT proteolysis [3]: strong inhibition
- shift of dose-response curve with pre-incubation time [3]: shift towards a lower IC50 value
- mHTT1–586-induced increase of LE22 binding to pro-C6 (C6wt) ([5]; 10 μM in the culture medium, co-transfection with mHTT1–586): completely reversed
- inhibitory effect on C6-mediated cleavage of small peptide substrates (VEID-AFC) [6]: minimal inhibitory effect
- intracellular C6-mediated cleavage of HTT1–1212 (HTT1–586 fragment) [7]: inhibited
- reduction in HTT co-immunoprecipitation ([9]; PG3d 10 μM in the media, mHTT1–1212): 50%
Compound: O=c1oc(C#Cc2ccccc2)nc(O)c1Cc1ccccc1 [PG3d, 5-Benzyl-4-hydroxy-2-(phenylethynyl)-6H-1,3-oxazin-6-one]
- LE22 labelling for deltaPro and D23A C6 [4]: normalized the amount of LE22 labelling
- LE22 labelling of C6 after inhibitor pre-incubation [8]: did not block accessibility of the active site

- proportion of pro-C6 and p18-C6 labelled with LE22 ([5]; C6-transfected cells treated with Q-VD-OPh prior to lysis): decreased
- intracellular C6-mediated cleavage of HTT1–1212 (HTT1–586 fragment) [7]: lowers HTT1–586 fragment levels
Compound: CC(C)[C@H](NC(=O)c1ccc2ccccc2n1)C(=O)N[C@@H](CC(=O)O)C(=O)COc1c(F)cccc1F [Q-VD-OPh]
- intracellular generation of active C6 subunits (p18) ([7]; COS-7 cells co-transfected with C6 and HTT1–1212, Q-VD-OPh 3 μM): reduces the intracellular generation of active C6 subunits
- effect on co-immunoprecipitation of HTT with C6 ([9]; Q-VD-OPh 3 μM): not prevented; also recorded: no significant difference

- shift of dose-response curve with pre-incubation time [3]: did not exhibit time-dependent behaviour
Compound: VDVAD-CHO [reference compound]
- LE22 labelling of C6 after inhibitor pre-incubation [8]: is replaced by the irreversible binding of the LE22 probe

- LE22 labelling of C6 after inhibitor pre-incubation [8]: prevented labelling of C6 with LE22
Compound: zVAD-fmk
